Measured values: patent EP0150787A2, “Compound having antibronchopneumopathic activity, process for its preparation and pharmaceutical compositions containing it” (PULITZER ITALIANA S.p.A., priority 1984, dated 1985)
Read-outs that look alike come from different tables or passages of the source.

Legend:
[1] = Acute toxicity, oral route, method of Litchfield and Wilcoxon; conditions: in vivo, os
Source text: The acute toxicity of PU 163 has been determined in the mouse and in the rat by the oral route accor ding to the method of Litchfield and Wilcoxon (J. Pharm. Exp. Therap. 1949, 96, 99).

trachea ciliate cells = test: Ciliary motility in the dog's trachea in vitro (transit speed of a charcoal bolus); format: cell-based; conditions: for SPEED OF CHARCOAL PARTICLES 5 Minutes mm/min. x̄ ± ES / SPEED OF CHARCOAL PARTICLES 10 Minutes mm/min x̄ ± ES / SPEED OF CHARCOAL PARTICLES 20 Minutes mm/min. x̄ ± ES / activation at 100 µg/mL: 10^-4 g/ml; for activation at 100 µg/mL: Canis lupus familiaris; for SPEED OF CHARCOAL PARTICLES Basal mm/min. x̄ ± ES: group later treated with 10^-4 g/ml
Source text: The mucolytic activity of many products is due in that they induce an increase of motility in the trachea ciliate cells.
The method hereinafter described allows to assess "in vitro" if a compound increases, or not, the motility of said cells. The method is based on the measurement of the transit speed of a charcoal bolus in a section of trachea.
The method used is that described by J.E. Lightowler and N.H. Lightowler (Arch. Int. Pharmacodyn. 189, 53-58, 1971) and uses an apparatus similar to that described by T. Dalhamn (Acta Physiol. Scand. Suppl. 123, 1956).

rat = test: Bronchosecretogogue activity (Mawatari test, bronchial elimination of sodium fluorescein); format: in vivo; conditions: 50 mg/kg i.p. (table head; text: oral route), percent increase of bronchial elimination
Source text: The bronchosecretogogue activity of PU 163 and, as a comparison, of Ambroxol has been determined in the rat using the method described by Mawatari ("Experimental Studies on the Expectorant Action of Several Drugs", Kagoshima Daigaku Igaku Zasshi, 27, 561, 1976). […] After the animals'sacrifice, the evaluation of the amound of sodium fluorescein present at the bronchial level has been carried out. The results obtained, reported in the Table 3, are expressed as percent increase of the bronchial elimination of sodium fluorescein of the groups treated with Ambroxol and PU 163 in comparison with a control group.

alveolar surfactant = test: Activity on the alveolar surfactant (static volume-pulmonary pressure curves); format: in vivo; conditions: rat, 50 mg/kg p.o.
Protocol: This test allow to verify if a compound can modi fy the surfaces of lung alveoli, as there are pathological conditions in which a superficial firm is produced in the alveoli which, as time goes on, can produce foam in the bronchi, making the respiration difficult. In order to assess this kind of activity, the method described by Curty P.C. (Arzneim. Forsch. Drug. Res., 24, 847, 1974) is used. According to said method the volume and the pressure after insufflation in the rat's lung, are measured. […] After sacrifice, and after the trachea incan nulation, the respiratory apparatus has been extracted from the thoracic cavity and the static cur ves of volume-pulmonary pressure.

[2] = tested on: chronic bronchitis induced by inhalation of SO in the rat; test: Chronic bronchitis induced by SO2 inhalation; format: in vivo; conditions: 50 mg/kg by gastric tube
Source text: The action of PU 163 in comparison with Ambroxol on the chronic bronchitis induced by inhalation of SO in the rat has been evaluated according to the method described by Quevauvillier e coll. (Therapie, XXII; 185-193; 1967). […] The efficacy of […] been evaluated in function of the regression degree of the pulmonary lesions induced by […] inhalation.

elastase = test: Elastase inhibition (method of R.M. Senior); format: biochemical
Source text: The inhibiting activity of PU 163 and of Ambroxol on elastase has been measured according to the method described by R.M. Senior (Plenum Press. New York; 249-254; 1977).

[3] = tested on: pulmonary emphysema induced in the guinea pig; test: Pulmonary emphysema induced by intratracheal porcine pancreatic elastase; format: in vivo; conditions: 50 mg/kg i.p. 1 hour after the elastase injection
Protocol: The ability of PU 163 of antagonizing the pulmonary emphysema induced in the guinea pig by intratracheal injection of 0.1 mg of porcine pancrea tic elastase has been evaluated in comparison with Ambroxol, according to the method described by Stone P.J. et al. (Am. Rev. Resp. Dis. 124/1, 56-59; 1981). Both compounds have been administered by the i.p. route at the equiponderant dose of 50 mg/kg 1 hour after the elastase injection.

[4] = Pharmacokinetics and organ distribution by HPLC; format: in vivo; conditions: rat, oral route, equimolar dose corresponding to 50 mg/kg of Ambroxol base
Protocol: The pharmacokynetics behaviour and the distribu tion in the organs of PU 163, in comparison to Ambroxol, has been determined in the rat after ad ministration by the oral route of equimolar doses, corresponding to 50 mg/kg of Ambroxol base.

[5] = 5 min, 5 minutes, read-out: SPEED OF CHARCOAL PARTICLES 5 Minutes % Δ vs.Bas. x̄ ± ES
[6] = 10 min, 10 minutes, * p <0.05, read-out: SPEED OF CHARCOAL PARTICLES 10 Minutes % Δ vs.Bas. x̄ ± ES
[7] = 20 min, 20 minutes, ** p <0.01, read-out: SPEED OF CHARCOAL PARTICLES 20 Minutes % Δ vs.Bas. x̄ ± ES

SMILES | LD50 ([1]; mouse) | LD50 ([1]; rat) | SPEED OF CHARCOAL PARTICLES 5 Minutes mm/min. x̄ ± ES (trachea ciliate cells; 5 minutes) | SPEED OF CHARCOAL PARTICLES 10 Minutes mm/min x̄ ± ES (trachea ciliate cells; 10 minutes) | SPEED OF CHARCOAL PARTICLES 20 Minutes mm/min. x̄ ± ES (trachea ciliate cells; 20 minutes) | activation at 100 µg/mL (trachea ciliate cells; [5]) | activation at 100 µg/mL (trachea ciliate cells; [6]) | activation at 100 µg/mL (trachea ciliate cells; [7]) | SPEED OF CHARCOAL PARTICLES Basal mm/min. x̄ ± ES (trachea ciliate cells) | SODIUM FLUORESCEIN % vs. control (rat) | Internal pulmonary pressure (cm. H2O) (alveolar surfactant; de-insufflation, 0.5 cm^3) | Internal pulmonary pressure (cm. H2O) (alveolar surfactant; de-insufflation, 1 cm^3) | Internal pulmonary pressure (cm. H2O) (alveolar surfactant; de-insufflation, 1.5 cm^3) | Internal pulmonary pressure (cm. H2O) (alveolar surfactant; de-insufflation, 2 cm^3) | Internal pulmonary pressure (cm. H2O) (alveolar surfactant; de-insufflation, 2.5 cm^3) | Internal pulmonary pressure (cm. H2O) (alveolar surfactant; de-insufflation, 3 cm^3) | Internal pulmonary pressure (cm. H2O) (alveolar surfactant; insufflation, 0.5 cm^3) | Internal pulmonary pressure (cm. H2O) (alveolar surfactant; insufflation, 1 cm^3) | Internal pulmonary pressure (cm. H2O) (alveolar surfactant; insufflation, 1.5 cm^3) | Internal pulmonary pressure (cm. H2O) (alveolar surfactant; insufflation, 2 cm^3) | other results
Nc1c(Br)cc(Br)cc1CN[C@H]1CC[C@H](O)CC1 [Ambroxol, 4-/ /(2-amino-3,5-dibromophenyl)-methyl/amino/cyclohexanol, reference compound] | > 2500 mg/kg | > 5000 mg/kg | 8.2 ±2.12 mm/min. | 9.5 ±1.62 mm/min | 10.2 ±2.31 mm/min. | 28.1 ± 3.54% | 57.6% | 59.4% | 6.4 ±1.30 mm/min. | 32.1% | 0.25 cm. H2O | 1.1 cm. H2O | 2.3 cm. H2O | 3.3 cm. H2O | 4.6 cm. H2O | 6.1 cm. H2O | 2.45 cm. H2O | 4.1 cm. H2O | 5.6 cm. H2O | 6.9 cm. H2O | Internal pulmonary pressure (cm. H2O) (alveolar surfactant; insufflation, 2.5 cm^3): 7.9 cm. H2O; Internal pulmonary pressure (cm. H2O) (alveolar surfactant; insufflation, 3 cm^3): 8.7 cm. H2O; Internal pulmonary pressure (cm. H2O) (alveolar surfactant; insufflation, 3.5 cm^3): 9.3 cm. H2O; percent regression (lesions degrees) [2]: 38%; inhibiting activity on elastase (elastase): practically inactive
O=C(Nc1c(Br)cc(Br)cc1CN[C@H]1CC[C@H](O)CC1)c1cccs1 [PU 163, 4-/ /(2-(2-thenoyl)-amino-3,5-dibromophenyl)-methyl/amino/cy-clohexanol] | > 2500 mg/kg | > 5000 mg/kg | 8.7 ±2.82 mm/min. | 10.2 ±2.02 mm/min | 11.5 ±2.38 mm/min. | 24.3 ± 7.8% | 45.7% | 64.3% | 7.00 ±1.40 mm/min. | 39.3% | 0.35 cm. H2O | 1.4 cm. H2O | 2.5 cm. H2O | 3.9 cm. H2O | 5.2 cm. H2O | 6.75 cm. H2O | 2.2 cm. H2O | 3.8 cm. H2O | 5.35 cm. H2O | 6.5 cm. H2O | Internal pulmonary pressure (cm. H2O) (alveolar surfactant; insufflation, 2.5 cm^3): 7.6 cm. H2O; Internal pulmonary pressure (cm. H2O) (alveolar surfactant; insufflation, 3 cm^3): 8.45 cm. H2O; Internal pulmonary pressure (cm. H2O) (alveolar surfactant; insufflation, 3.5 cm^3): 9 cm. H2O; activity of reducing emphysema [3]: high activity of reducing emphysema; percent regression (lesions degrees) [2]: 62%; concentrations in the organs (pulmonary level) [4]: larger amounts of Ambroxol at the pulmonary level; plasma concentrations as Ambroxol ([4]; compared with Ambroxol treated group): detected at prolonged times
